Experimental data from patent publication US8076488B2, “Bicyclic urea derivatives useful in the treatment of cancer and other disorders” (Bayer Healthcare LLC, priority 2003, dated 2011).

Molecular target: T1, c-Raf kinase (Lck-activated c-Raf, Raf-1) (Homo sapiens, UniProt P04049)
T1 construct: GST-c-Raf (from amino acid 302 to amino acid 648); made in house; host or cells: Sf9 insect cells (baculovirus; co-infection with full-length Lck)
Assay: c-Raf (Raf-1) biochemical assay (radioactive filtermat assay, MEK-1 substrate)
Conditions: at 1 micromolar compound; 5 μM ATP, 32° C., 1 hour
Method: Biological Tests c-Raf (Raf-1) Biochemical Assay Purification of Proteins Used in the Assay
The c-Raf biochemical assay was performed with a c-Raf enzyme that was activated (phosphorylated) by Lck kinase. Lck-activated c-Raf (Lck/c-Raf) was produced in Sf9 insect cells by co-infecting cells with baculoviruses expressing, under the control of the polyhedrin promoter, GST-c-Raf (from amino acid 302 to amino acid 648) and Lck (full-length). Both baculoviruses were used at the multiplicity of infection of 2.5 and the cells were harvested 48 hours post infection.
MEK-1 protein was produced in Sf9 insect cells by infecting cells with the baculovirus expressing GST-MEK-1 (full-length) fusion protein at the multiplicity of infection of 5 and harvesting the cells 48 hours post infection. Similar purification procedure was used for GST-c-Raf 302-648 and GST-MEK-1.
Transfected cells were suspended at 100 mg of wet cell biomass per mL in a buffer containing 10 mM sodium phosphate, 140 mM sodium chloride pH 7.3, 0.5% Triton X-100 and the protease inhibitor cocktail. The cells were disrupted with Polytron homogenizer and centrifuged 30,000 g for 30 minutes. The 30,000 g supernatant was applied onto GSH-Sepharose. The resin was washed with a buffer containing 50 mM Tris, pH 8.0, 150 mM NaCl and 0.01% Triton X-100. The GST-tagged proteins were eluted with a solution containing 100 mM Glutathione, 50 mM Tris, pH 8.0, 150 mM NaCl and 0.01% Triton X-100. The purified proteins were dialyzed into a buffer containing 20 mM Tris, pH 7.5, 150 mM NaCl and 20% Glycerol.
Biochemical Assay Protocol and Results
The compounds were serially diluted in DMSO using three-fold dilutions to stock concentrations ranging typically from 50 μM to 20 nM (final concentrations in the assay range from 1 μM to 0.4 nM). The c-Raf biochemical assay was performed as a radioactive filtermat assay in 96-well Costar polypropylene plates (Costar 3365). The plates were loaded with 75 μL solution containing 50 mM HEPES pH 7.5, 70 mM NaCl, 80 ng of Lck/c-Raf and 1 μg MEK-1. Subsequently, 2 μL of the serially diluted individual compounds were added to the reaction, prior to the addition of ATP. The reaction was initiated with 25 μL ATP solution containing 5 μM ATP and 0.3 μCi [33P]-ATP. The plates were sealed and incubated at 32° C. for 1 hour. The reaction was quenched with the addition of 50 μl of 4% Phosphoric Acid and harvested onto P30 filtermats (PerkinElmer) using a Wallac Tomtec Harvester. Filtermats were washed with 1% Phosphoric Acid first and deinonized H2O second. The filters were dried in a microwave, soaked in scintillation fluid and read in a Wallac 1205 Betaplate Counter (Wallac Inc., Atlanta, Ga., U.S.A.). The results were expressed as percent inhibition. % Inhibition=[[…]]×100 where • Tib=(counts per minute with inhibitor)−(background) • Ti=(counts per minute without inhibitor)−(background)

T1 sequence (P04049 302-648): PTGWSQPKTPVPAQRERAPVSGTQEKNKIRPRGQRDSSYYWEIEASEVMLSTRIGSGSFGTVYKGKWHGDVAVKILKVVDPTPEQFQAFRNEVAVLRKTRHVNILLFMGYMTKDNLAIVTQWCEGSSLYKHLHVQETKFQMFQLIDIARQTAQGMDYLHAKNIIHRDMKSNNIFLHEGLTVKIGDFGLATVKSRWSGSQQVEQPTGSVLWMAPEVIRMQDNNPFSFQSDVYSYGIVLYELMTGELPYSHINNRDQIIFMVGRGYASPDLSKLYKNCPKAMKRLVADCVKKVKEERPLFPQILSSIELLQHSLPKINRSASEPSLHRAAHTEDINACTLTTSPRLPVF

Row | SMILES | inhibition at 1 µM
1 | Cn1ncc2cc(NC(=O)Nc3ccc(Oc4ccnc(C(=O)NCCN5CCCC5)c4)cc3)ccc21 [Example 156] | > 40%
2 | Cn1ncc2cc(NC(=O)Nc3ccc(Oc4ccnc(C(=O)NCCN5CCNCC5)c4)cc3)ccc21 [Example 157] | > 40%
3 | O=C(Nc1ccc(Oc2ccnc(C(=O)NCCCn3ccnc3)c2)cc1)Nc1ccc2c(c1)OCCO2 [Example 158] | > 40%
4 | O=C(Nc1ccc(Oc2ccnc(C(=O)NCCN3CCCC3)c2)cc1)Nc1ccc2c(c1)OCCO2 [Example 159] | > 40%
5 | Cn1ncc2cc(NC(=O)Nc3ccc(Oc4ccnc(C(=O)NCCCn5ccnc5)c4)cc3)ccc21 [Example 160] | > 40%
6 | Cn1ncc2cc(NC(=O)Nc3ccc(Oc4ccnc(C(=O)NCCN5CCCCC5)c4)cc3)ccc21 [Example 161] | > 40%
7 | Cn1ncc2cc(NC(=O)Nc3ccc(Oc4ccnc(C(=O)NCC5CC5)c4)cc3)ccc21 [Example 162] | > 40%
8 | Cn1ncc2cc(NC(=O)Nc3ccc(Oc4ccnc(C(=O)NC5CCC5)c4)cc3)ccc21 [Example 163] | > 40%
9 | Cn1ncc2cc(NC(=O)Nc3cccc(Oc4ccnc(C(=O)NCCCn5ccnc5)c4)c3)ccc21 [Example 166] | > 40%
10 | O=C(Nc1cccc(Oc2ccnc(C(=O)NCCN3CCCC3)c2)c1)Nc1ccc2c(c1)C(F)(F)OC(F)(F)O2 [Example 168] | > 40%
11 | O=C(Nc1cccc(Oc2ccnc(C(=O)Nc3cccnc3)c2)c1)Nc1ccc2c(c1)C(F)(F)OC(F)(F)O2 [Example 169] | > 40%
